In data set [1] the test system is Haemonchus contortus. The data set can be described thus: Method D: Haemonchus contortus in vivo in Mongolian jirds. Details: species or system Mongolian jirds (Meriones unguiculatus). As to conditions: po, 72 h, read-out: reduction in nematode infestation.
The subject of data set [2] is Cooperia oncophora. Briefly: Method C: Cooperia oncophora L1 larvae in vitro. As to conditions: 96 h, read-out: inhibition of motility.
The test system of data set [3] is Haemonchus contortus. The data set can be described thus: Method A: Haemonchus contortus L1 larvae, microtitre plate screen. As to conditions: 96 h, read-out: motility inhibition.
Data set [4] concerns microfilaria of Dirofilaria immitis. Briefly: Method F: microfilaria of Dirofilaria immitis, survival at 24 hours.
Data set [5] can be described thus: Method G: permeability in the Caco-2/TC7 in vitro model. As to conditions: human, Caco-2, pH 6.5. In general terms: Passage across Caco-2 layers is used to estimate intestinal permeability.
Where [6] appears, read: survival of microfilaria at 24 hours.

Where two headings read alike, the source gives them in different places.

A word on the inhibition: it is how much of the control response was suppressed. The term EC50 denotes the concentration giving half of the maximal effect. In the case of `O=C(CO[C@H]1CC[C@H](Nc2ccc([N+](=O)[O-])c(C(F)(F)F)c2)CC1)N1CCN(CC2Cc3cc(F)ccc3O2)CC1` (stereo partly drawn) [Compound 77], the inhibition in vivo at 30 mg/kg in data set [1] was over 90%. Also, the inhibition at 5 µg/mL in data set [2] and in data set [3] was at least 90% in each case. This molecule also registered an EC50 in data set [4] (setting [6]) of under 5 µg/mL.

As for `O=C(CO[C@H]1CC[C@H](Nc2ccc([N+](=O)[O-])c(C(F)(F)F)c2)CC1)N1CCN(CC2Cc3cc(C(F)(F)F)ccc3O2)CC1` (stereo partly drawn) [Compound 78, 2-[(4-[[4-nitro-3-(trifluoromethyl)phenyl]amino]cyclohexyl)oxy]-1-(4-[[5-(trifluoromethyl)-2,3-dihydro-1-benzofuran-2-yl]methyl]piperazin-1-yl)ethan-1-one], the inhibition in vivo at 30 mg/kg in data set [1] is over 90%. For the same molecule, the inhibition at 5 µg/mL in data set [2] and in data set [3] was at least 90% throughout. The molecule also displayed a half-maximal effective concentration (EC50) in data set [4] (setting [6]) of under 5 µg/mL.

For the molecule `O=C(CO[C@H]1CC[C@H](Nc2ccc([N+](=O)[O-])c(C(F)(F)F)c2)CC1)N1CCN(c2ccc3cc(C(F)(F)F)ccc3n2)CC1` [Compound 89, 2-[(4-[[4-nitro-3-(trifluoromethyl)phenyl]amino]cyclohexyl)oxy]-1-[4-[6-(trifluoromethyl)quinolin-2-yl]piperazin-1-yl]ethan-1-one], the inhibition in vivo at 30 mg/kg in data set [1] is over 90%. In addition, the inhibition at 5 µg/mL in data set [2] and in data set [3] was at least 90% each time. This molecule returned an EC50 in data set [4] (setting [6]) of under 5 µg/mL.

The term Papp A→B denotes how fast a substance crosses the layer from the apical side. A low value points to poor permeation. With `O=C(CO[C@H]1CC[C@H](Nc2ccc([N+](=O)[O-])c(C(F)(F)F)c2)CC1)N1CCN(Cc2cc3cc(Cl)ccc3o2)CC1` [Compound 178, 1-[4-[(5-chloro-1-benzofuran-2-yl)methyl]piperazin-1-yl]-2-[(4-[[4-nitro-3-(trifluoromethyl)phenyl]amino]cyclohexyl)oxy]ethan-1-one], the inhibition at 5 µg/mL in data set [2] and in data set [3] was at least 90% throughout. Moreover, in data set [4] (setting [6]), the EC50 is under 1 µg/mL. In addition, the Papp A→B at 20 μM in data set [5] amounted to 4.9 ×10⁻⁶ cm/s.

As to `O=C(CO[C@H]1CC[C@H](Nc2ccc([N+](=O)[O-])c(C(F)(F)F)c2)CC1)N1CCN(Cc2cc3cc(C(F)(F)F)ccc3o2)CC1` [Compound 180, 2-[(4-[[4-nitro-3-(trifluoromethyl)phenyl]amino]cyclohexyl)oxy]-1-(4-[[5-(trifluoromethyl)-1-benzofuran-2-yl]methyl]piperazin-1-yl)ethan-1-one], the inhibition in vivo at 30 mg/kg in data set [1] is over 90%. In addition, the inhibition at 5 µg/mL in data set [2] and in data set [3] was at least 90% throughout. Moreover, the EC50 in data set [4] (setting [6]) was under 1 µg/mL.

With `O=C(CO[C@H]1CC[C@H](Nc2ccc([N+](=O)[O-])c(C(F)(F)F)c2)CC1)N1CCN(Cc2cc3cc(F)ccc3s2)CC1` [Compound 234, 1-[4-[(5-fluoro-1-benzothiophen-2-yl)methyl]piperazin-1-yl]-2-[[4-[[4-nitro-3-(trifluorometh-yl)phenyl]amino]cyclohexyl]oxy]ethan-1-one], the inhibition at 5 µg/mL in data set [2] and in data set [3] was at least 90% throughout. The EC50 in data set [4] (setting [6]) was under 0.1 µg/mL. Besides, the Papp A→B at 20 μM in data set [5] was 4 ×10⁻⁶ cm/s.

For `CN(c1ccc([N+](=O)[O-])c(C(F)(F)F)c1)[C@H]1CC[C@H](OCC(=O)N2CCN(Cc3cc4cc(C(F)(F)F)ccc4o3)CC2)CC1` [Compound 256, 2-[[4-[methyl[4-nitro-3-(trifluoromethyl)phenyl]amino]cyclohexyl]oxy]-1-(4-[[5-(trifluorom-ethyl)-1-benzofuran-2-yl]methyl]piperazin-1-yl)ethan-1-one], the inhibition at 5 µg/mL in data set [3] was at least 90%. The molecule also had an EC50 in data set [4] (setting [6]) of under 1 µg/mL. Moreover, the Papp A→B at 20 μM in data set [5] came to 5.4 ×10⁻⁶ cm/s.

On to `N#Cc1ccc(N[C@H]2CC[C@H](OCC(=O)N3CCN(Cc4cc5cc(Cl)ccc5o4)CC3)CC2)cc1C(F)(F)F` [Compound 274, 2-[(4-[[4-cyano-3-(trifluoromethyl)phenyl]amino]cyclohexyl)-oxy]1-[4-(5-chlorobenzofuran-2-ylmethyl)piperazin-1-yl]ethan-1-one], for which the inhibition at 5 µg/mL in data set [3] is at least 90%. The same molecule came in with an EC50 in data set [4] of under 1 µg/mL. Besides, the Papp A→B at 20 μM in data set [5] is 9.2 ×10⁻⁶ cm/s.

On to `CN(c1ccc(C#N)c(C(F)(F)F)c1)[C@H]1CC[C@H](OCC(=O)N2CCN(c3ccc4cc(C(F)(F)F)ccc4n3)CC2)CC1` [Compound 283, 2-[(4-[methyl[4-cyano-3-(trifluoromethyl)phenyl]amino]cyclohexyl)-oxy]1-[4-[6-(trifluoromethyl)quinolin-2-yl]-piperazin-1-yl]ethan-1-one], for which the inhibition in vivo at 30 mg/kg in data set [1] is over 90%. The inhibition at 5 µg/mL in data set [2] and in data set [3] was at least 90% in each case.

Regarding `O=C(CO[C@H]1CC[C@H](Nc2ccc([N+](=O)[O-])c(C(F)(F)F)c2)CC1)N1CCN(Cc2nc3cc(Cl)ccc3o2)CC1` [Compound 287, 2-[(4-[[4-nitro-3-(trifluoromethyl)phenyl]amino]cyclohexyl)-oxy]1-[4-(5-chlorobenzoxazol-2-ylmethyl)piperazin-1-yl]ethan-1-one], the inhibition at 5 µg/mL in data set [3] was at least 90%. The EC50 in data set [4] (setting [6]) was under 5 µg/mL. The Papp A→B at 20 μM in data set [5] stood at 11 ×10⁻⁶ cm/s.

Take `O=C(CO[C@H]1CC[C@H](Nc2ccc([N+](=O)[O-])c(C(F)(F)F)c2)CC1)N1CCN(Cc2nc3cc(Cl)ccc3s2)CC1` [Compound 291, 1-[4-[(5-chloro-1,3-benzothiazol-2-yl)methyl]piperazin-1-yl]-2-[4-[4-nitro-3-(trifluoromethyl)anilino]cyclohexoxy]ethanone]: the inhibition at 5 µg/mL in data set [2] and in data set [3] was at least 90% throughout. In addition, in data set [5], the Papp A→B at 20 μM was determined as 6.2 ×10⁻⁶ cm/s.

Take `N#Cc1ccc(N[C@H]2CC[C@H](OCC(=O)N3CCN(Cc4nc5cc(Cl)ccc5s4)CC3)CC2)cc1C(F)(F)F` [Compound 292, 4-[[4-[2-[4-[(5-chloro-1,3-benzothiazol-2-yl)methyl]piperazin-1-yl]-2-oxo-ethoxy]cyclohexyl]amino]-2-(trifluoromethyl)benzonitrile]: the inhibition at 5 µg/mL in data set [3] was at least 90%. The EC50 in data set [4] is under 1 µg/mL. This molecule also came in with a Papp A→B at 20 μM in data set [5] of 8.3 ×10⁻⁶ cm/s.

With `N#Cc1ccc(N[C@H]2CC[C@H](OCC(=O)N3CCN(Cc4nc5cc(F)ccc5s4)CC3)CC2)cc1C(F)(F)F` [Compound 294, 4-[[4-[2-[4-[(5-fluoro-1,3-benzothiazol-2-yl)methyl]piperazin-1-yl]-2-oxo-ethoxy]cyclohexyl]amino]-2-(trifluoromethyl)benzonitrile], the inhibition at 5 µg/mL in data set [3] was at least 90%. Besides, the EC50 in data set [4] was under 5 µg/mL. For the same molecule, in data set [5], the Papp A→B at 20 μM is 8.2 ×10⁻⁶ cm/s.

Take `O=C(CO[C@H]1CC[C@H](Nc2ccc([N+](=O)[O-])c(C(F)(F)F)c2)CC1)N1CCN(Cc2ccc3cc(F)ccc3c2)CC1` [Compound 297, 2-[(4-[[4-nitro-3-(trifluoromethyl)phenyl]amino]cyclohexyl)-oxy]1-[4-(6-fluoronaphthalen-2-ylmethyl)piperazin-1-yl]ethan-1-one]: the inhibition at 5 µg/mL in data set [2] and in data set [3] was at least 90% in each case. Also, the EC50 in data set [4] (setting [6]) was under 1 µg/mL. The Papp A→B at 20 μM in data set [5] was 5.7 ×10⁻⁶ cm/s.

Turning to `N#Cc1ccc(N[C@H]2CC[C@H](OCC(=O)N3CCN(Cc4nc5cc(C(F)(F)F)ccc5s4)CC3)CC2)cc1C(F)(F)F` [Compound 301], the inhibition at 5 µg/mL in data set [2] and in data set [3] was at least 90% in each case. Besides, in data set [4], the EC50 was under 0.1 µg/mL. Besides, the Papp A→B at 20 μM in data set [5] amounted to 9.9 ×10⁻⁶ cm/s.

With `CC(c1cc2cc(F)ccc2o1)N1CCN(C(=O)CO[C@H]2CC[C@H](Nc3ccc([N+](=O)[O-])c(C(F)(F)F)c3)CC2)CC1` (stereo partly drawn) [Compound 304, 2-[(4-[[4-nitro-3-(trifluoromethyl)phenyl]amino]cyclohexyl)-oxy]1-[4-[1-(5-fluorobenzofuran-2-yl)ethyl]piperazin-1-yl]ethan-1-one], the inhibition at 5 µg/mL in data set [2] and in data set [3] was at least 90% in each case. In addition, the EC50 in data set [4] (setting [6]) was under 5 µg/mL. The Papp A→B at 20 μM in data set [5] came to 9 ×10⁻⁶ cm/s.

In the case of `N#Cc1ccc(N[C@H]2CC[C@H](OCC(=O)N3CCN(Cc4cc5cc(C(F)(F)F)ccc5o4)CC3)CC2)cc1C(F)(F)F` [Compound 306, 4-(4-{2-oxo-2-[4-(5-trifluoromethyl-benzofuran-2-ylmethyl)-piperazin-1-yl]-ethoxy}-cyclohexylamino)-2-trifluoromethyl-benzonitrile], the inhibition at 5 µg/mL in data set [3] is at least 90%. The EC50 in data set [4] was under 0.1 µg/mL. This molecule also yielded a Papp A→B at 20 μM in data set [5] of 9 ×10⁻⁶ cm/s.

In the case of `O=C(CO[C@H]1CC[C@H](Nc2ccc([N+](=O)[O-])c(C(F)(F)F)c2)CC1)N1CCN(Cc2cc3c(F)c(F)ccc3o2)CC1` [Compound 320, 2-[(4-[[4-nitro-3-(trifluoromethyl)phenyl]amino]cyclohexyl)-oxy]1-[4-(4,5-difluorobenzofuran-2-ylmethyl)piperazin-1-yl]ethan-1-one], the inhibition at 5 µg/mL in data set [2] and in data set [3] was at least 90% in each case. The molecule also yielded a Papp A→B at 20 μM in data set [5] of 6.8 ×10⁻⁶ cm/s.

In the case of `O=C(CO[C@H]1CC[C@H](Nc2ccc([N+](=O)[O-])c(C(F)(F)F)c2)CC1)N1CCN(Cc2ccc3ccc(C(F)(F)F)cc3n2)CC1` [Compound 328, 2-[4-(4-nitro-3-trifluoromethyl-phenylamino)-cyclohexyloxy]-1-[4-(7-trifluoromethyl-quinolin-2-ylmethyl)-piperazin-1-yl]-ethanone], the inhibition at 5 µg/mL in data set [2] and in data set [3] was at least 90% throughout. This molecule also registered a Papp A→B at 20 μM in data set [5] of 7.2 ×10⁻⁶ cm/s.

Take `O=C(CO[C@H]1CC[C@H](Nc2ccc([N+](=O)[O-])c(C(F)(F)F)c2)CC1)N1CCN(c2nc3cc(C(F)(F)F)ccc3s2)CC1` [Compound 342, 2-[4-(4-nitro-3-trifluoromethyl-phenylamino)-cyclohexyloxy]-1-[4-(5-trifluoromethyl-benzothiazol-2-yl)-piperazin-1-yl]-ethanone]: the inhibition in vivo at 30 mg/kg in data set [1] was over 90%. The inhibition at 5 µg/mL in data set [2] and in data set [3] was at least 90% throughout.

The values are drawn from US9249102B2 (priority 2012, dated 2016).
